The subject of assay [1] is BimS, XIAP and Bc1-XL in MM cells. The experiment in a line: Immunoblotting, apoptosis regulatory factors. The class given is cell-based, human. As to conditions: 10 μM compound A. The procedure:
(§1) MM cell lines ARP1, ARK, MM.1S, MM.1R and U266 were maintained in RPMI-1640 medium supplemented with 10% fetal bovine serum, 100 U/ml penicillin and 100 μg/ml streptomycin at 37° C. and 5% CO2 Primary MM cells and MM BMSCs were isolated from bone marrow aspirates of myeloma patients. PBMCs were obtained from healthy volunteers. The study was approved by the Institutional Review Board at The University of Texas M.D. Anderson Cancer Center. Anti-caspase-3, caspase-9, PARP, Bim, XIAP, cyclin D1, pp 70S6K (Thr389) and p27(Kip1) antibodies were purchased from Cell Signaling. Anti-bcl-2, Bc1-XL, Akt, pAkt (Thr 308), pAkt (Ser 473), p70S6K and β-actin antibodies were purchased from Santa Cruz. Compound A was dissolved in DMSO at 10 mM as stock solution. Dexamethasone and Propidium iodide (PI) were purchased from Sigma-Aldrich. Recombinant human IL6 was purchased from R&D Systems. FITC conjugated Annexin V was obtained from Invitrogen.
Next, the expressions of apoptosis regulatory factors was tested. […] Bim is a pro-apoptotic factor belonging to Bc1-2 family (O'Connor L, Strasser A, O'Reilly L A, et al. Bim: a novel member of the Bc1-2 family that promotes apoptosis. EMBO J. 1998; 17 (2):384-395). Bim has three major isoforms generated by alternative splicing, BimEL, BimL and BimS. The shortest form BimS is the most cytotoxic isoform (Weber A, Paschen S A, Heger K, et al. BimS-induced apoptosis requires mitochondrial localization but not interaction with anti-apoptotic Bel-2 proteins. J. Cell Biol. 2007; 177 (4):625-636). Previous work has shown that the transcription of Bim is regulated by the forkhead transcription factor FKHR-L1, a downstream effector of PI3K (Dijkers P F, Medema R H, Lammers J W, Koenderman L, Coffer P J. Expression of the pro-apoptotic Bc1-2 family member Bim is regulated by the forkhead transcription factor FKHR-L1. Curr Biol. 2000; 10 (19):1201-1204). […] Thus, compound A induced MM cell apoptosis may be caused by up-regulation of cytotoxic BimS and down-regulation of anti-apoptotic XIAP and Bc1-XL.
(A). […]
On the technique in general: A western blot detects proteins with antibodies after separation by electrophoresis.

The test system of a further assay is ARP1 cells. The experiment in a line: Established MM model in SCID mice. To be noted: 5 μmol per kg per day intraperitoneal, versus PBS control. The assay is classed as in vivo. Here is the method: Six to eight week old female SCID mice were housed and monitored in MD. Anderson Cancer Center animal research facility. All experimental procedures and protocols had been approved by the Institutional Animal Care and Use Committee at The University of Texas M.D. Anderson Cancer Center. SCID mice were subcutaneously inoculated in the right flank with 1 million ARP1 cells suspended in 50 μl PBS. After palpable tumor developed (tumor diameters ≧5 mm), mice were treated with daily intraperitoneal injection of PBS or compound A (5 μmol per kg per day). Tumor sizes were measured every 5 days, and blood samples were collected with the same period. Tumor burdens were evaluated by measuring tumor size and detecting circulating human kappa chain.
Levels of human kappa chain in mice serum were measured by a quantitative ELISA (Bethyl Laboratories Inc) followed the vendor's protocol.
To examine compound A anti-MM effects in vivo, human MM model in SCID mice were established as described in Materials and Methods. When palpable tumors developed (≧5 mm diameters), mice (10 per group) received intraperitoneal injection of compound A (5 μmol per kg per day) or vehicle control PBS daily.
SCID mice were inoculated subcutaneously in the right flank with 1×10^6 ARP1 cells. Three to 4 weeks later when palpable tumors (≧5 mm in diameter) developed, mice (10 per group) were treated with intraperitoneal injections of PBS or compound A (100 nmol per mouse per day) daily. Tumor burdens were measured as (A) tumor volumes and (B) levels of circulating human kappa china in SCID mice sera detected by ELSA, and (C) survival of tumor-bearing mice.

Assay [2] concerns PI3K-Akt-mTOR pathway in MM cells. Briefly: Immunoblotting, PI3K-Akt-mTOR pathway. The class given is cell-based, human. Here is the method: as §1
To further analyze the signaling pathways that were affected by compound A exposure in MM cells, immunoblotting was extended to other cell signaling molecules. First, the inhibitory effect of compound A on PI3K-Akt-mTOR pathway in MM cells was tested. […] This is probably because of increased apoptotic cells after compound A treatment. […] Such findings indicate that compound A inhibits PI3K-Akt-mTOR pathways in MM cells.
(A). […] Compound A induced activation and cleavage of caspase-3, caspase-9 and PARP is shown. (B). Same MM cells treated with 10 μM compound A were lysed for western blotting. (C) RP1 cells were treated with 10 μM compound A for 1, 6, 12 and 24 hours.

Assay [3] relates to MM cell lines ARP1, MM.1S and MM.1R. Briefly: Apoptosis in coculture with BMSCs. The class given is cell-based, human. As to conditions: 10 μM compound A, 24 hours, BMSC coculture. The procedure: For this purpose, BMSCs isolated from MM patient were cocultured with MM cell lines ARP1, MM.1S and MM.1R. The cells were treated with or without 10 μM of compound A for 24 hours. As a positive control, MM.1S cells were cocultured with or without BMSC and treated with or without 40 μg/ml of dexamethasone for 24 hours. After treatment, the MM cells were identified as CD138+ cells by APC-CD138 staining.
MM cell lines ARP1, MM.1S and MM.1R were cultured with 10 μM compound A for 3 days. rhIL-6 were added to final concentration of 5 ng/ml. As a positive control, MM.1S cells were treated with 40 μg/ml dexamethasone in the presence of 5 ng/ml of rhIL6 for the same time. Cells apoptosis rate was measured by annexin V staining. (B). Same MM cells were co-cultured with or without MM BMSC, and treated with 10 μM of compound A for 1 day. As a positive control, MM.1S cells were cocultured with or without BMSC and treated with 40 μg/ml dexamethasone for 1 day. CD138+ MM cells apoptosis rate was measured by Annexin V staining.

Another assay relates to ARK. Briefly: MTS cell growth assay. The class given is cell-based. As to conditions: Homo sapiens, 24 hours treatment, read-out: IC50 (concentration at 50% inhibition), cell growth. The procedure: as §1
(§2) All experiments were performed in triplicate.

For the next assay, the system named is MM.1S. The experiment in a line: MTS cell growth assay. The class given is cell-based. To be noted: Homo sapiens, MM1.S, 24 hours treatment, read-out: IC50 (concentration at 50% inhibition), cell growth. Here is the method:
as §1, §2
(Tetrazolium dyes change colour on reduction, which living cells bring about.)

In a further assay the test system is U266. The experiment in a line: MTS cell growth assay. The assay is classed as cell-based. To be noted: Homo sapiens, U-266, U266, 24 hours treatment, read-out: IC50 (concentration at 50% inhibition), cell growth. Here is the method:
as §1, §2

Turning to `Nc1cc(C(F)(F)F)c(-c2cc(N3CCOCC3)nc(N3CCOCC3)n2)cn1` [compound A, 5-(2,6-di-morpholin-4-yl-pyrimidin-4-yl)-4-trifluoromethyl-pyridin-2-ylamine], in assay [1], the Bc1-XL expression result is reported as “down-regulated”, the BimS expression entry is listed as “up-regulated” and the XIAP expression result is reported as “down-regulated”. Besides, in the assay on ARP1 cells, the “survival of tumor-bearing mice” value was “significantly prolonged”. The “tumor burden measured by tumor volume” value with ARP1 cells (P<0.05) was “significantly smaller tumor burdens”. The “tumor burden measured by level of circulating human kappa chain” value with ARP1 cells (P<0.05, ELISA) is recorded as “significantly smaller tumor burdens”. For the same compound, in assay [2] (10 μM compound A), the “p-Akt at Ser473 and Thr308” value is listed as “down-regulated”. The “total Akt levels” value in assay [2] (ARP1 and MM.1R cells, 10 μM) is reported as “decreased”. Also, in assay [2] (tested MM cell lines, 10 μM), the p-P70S6K levels entry was “decreased” and the “total P70S6K expression” value was “remained constant”. For the same compound, in assay [3], the “effect of BMSCs on compound A induced MM cell apoptosis” value is on record as “did not protect”. The IC50 in the assay on ARK lay in the range of 1 to 10 µM. The IC50 in the assay on MM.1S is < 1 µM. Also, the IC50 in the assay on U266 lay within 10 to 100 µM.
